Assay results as given in patent US20100144755A1 (Glaxo Group Limited, priority 2006, published 2010).
Counter-ions that a name gives are not always drawn.

Test system: influx of neutrophils to the lung in LPS-challenged rats
Assay: Rat LPS neutrophilia model
Format: in vivo
Settings: LPS aerosol, intratracheal dosing, in at least one of the range of conditions tested, significance p<0.05
Protocol: Rat LPS Neutrophilia Model
The effect of compounds on the influx of neutrophils to the lung in LPS-challenged rats is evaluated as follows. The test compound is suspended in one of the following solutions: 0.5% tween 80/PBS, 0.5% tween 80/saline, 10% EtOH/saline (with pH adjusted to 2.0, or 8.0 with HCl, or unadjusted), Saline @pH 2.0, 6.5 or 8.0, 0.5% Tragacanth, 1% DMSO/20% Encapsin/Saline, or acidified 5% Tragacanth. The suspension process may be aided by the use of a glass homogenizer. For intratracheal administration, the animals are anesthetized with inhaled isoflurane and placed in a supine position, the trachea is intubated with a steel gavage needle (1.5 inch, 22 gauge, small ball) or a Penn-Century Microsprayer Aerosolizer (model IA-1B) and 200 ul of dosing solution is delivered. The animals are visually monitored during the recovery process, which typically occurs within two minutes. It is noted that the test compounds may be alternatively administered via the microsprayer in a dry powder blend with a suitable excipient, such as lactose.
Rats treated with compound or vehicle (15 min-24 hours pretreatment) are exposed to an LPS aerosol (100 ug/ml) for 15 min. Four hours later the rats are euthanized with pentobarbital (100 mg/kg, i.p.) and the airways are lavaged with 5 washes of 5 ml of phosphate buffered saline. The harvested cells are stained (Diffquick) and counted to determine total and differential cell data. […] Inhibition of neutrophil levels relative to no compound controls is calculated based on the differential counts.
The data is obtained as % inhibition using a particular concentration and pretreat time.

Q: With CCNC(=O)c1ccc(C)c(-c2nc(NCCCN(CC)CC)nc3c2ccc(=O)n3-c2c(F)cccc2F)c1 [Example 129, 3-[2-{[3-(diethylamino)propyl]amino}-8-(2,6-difluorophenyl)-7-oxo-7,8-dihydropyrido[2,3-d]pyrimidin-4-yl]-N-ethyl-4-methylbenzamide] as the compound, how does the inhibition of neutrophilia read?
A: Its inhibition of neutrophilia is “statistically nonsignificant inhibition”.

Q: How did the inhibition of neutrophilia turn out when CCN(CC)CCCNc1nc(-c2cc(C(=O)NCC3CCCC3)ccc2C)c2ccc(=O)n(-c3c(F)cccc3F)c2n1 [Example 132, N-(cyclopentylmethyl)-3-[2-{[3-(diethylamino)propyl]amino}-8-(2,6-difluorophenyl)-7-oxo-7,8-dihydropyrido[2,3-d]pyrimidin-4-yl]-4-methylbenzamidetrifluoroacetate] was run?
A: The inhibition of neutrophilia was “statistically nonsignificant inhibition”.

Q: Which inhibition of neutrophilia does the source give for CCN(CC)CCCNc1nc(-c2cc(C(=O)NCCF)ccc2C)c2ccc(=O)n(-c3c(F)cccc3F)c2n1 [Example 133, 3-[2-{[3-(diethylamino)propyl]amino}-8-(2,6-difluorophenyl)-7-oxo-7,8-dihydropyrido[2,3-d]pyrimidin-4-yl]-N-(2-fluoroethyl)-4-methylbenzamidetrifluoroacetate] here?
A: Its inhibition of neutrophilia is “statistically significant inhibition”.

Q: For CCN(CC)CCCNc1nc(-c2cc(C(=O)NCCOC)ccc2C)c2ccc(=O)n(-c3c(F)cccc3F)c2n1 [Example 134, 3-[2-{[3-(diethylamino)propyl]amino}-8-(2,6-difluorophenyl)-7-oxo-7,8-dihydropyrido[2,3-d]pyrimidin-4-yl]-4-methyl-N-[2-(methyloxy)ethyl]benzamidetrifluoroacetate], which inhibition of neutrophilia is on record?
A: The inhibition of neutrophilia was “statistically nonsignificant inhibition”.

Q: Which inhibition of neutrophilia does the source give for CCN(CC)CCCNc1nc(-c2cc(C(=O)NCC3CCCCC3)ccc2C)c2ccc(=O)n(-c3c(F)cccc3F)c2n1 [Example 135, N-(cyclohexylmethyl)-3-[2-{[3-(diethylamino)propyl]amino}-8-(2,6-difluorophenyl)-7-oxo-7,8-dihydropyrido[2,3-d]pyrimidin-4-yl]-4-methylbenzamidetrifluoroacetate] here?
A: The inhibition of neutrophilia was “inactive”.

Q: Which inhibition of neutrophilia does the source give for CCN(CC)CCCNc1nc(-c2cc(C(=O)NC3CCC3)ccc2C)c2ccc(=O)n(-c3c(F)cccc3F)c2n1 [Example 137, N-cyclobutyl-3-[2-{[3-(diethylamino)propyl]amino}-8-(2,6-difluorophenyl)-7-oxo-7,8-dihydropyrido[2,3-d]pyrimidin-4-yl]-4-methylbenzamide trifluoroacetate] here?
A: The inhibition of neutrophilia was “statistically significant inhibition”.

Q: For CCN(CC)CCCNc1nc(-c2cc(C(=O)NCC3CC3)ccc2C)c2ccc(=O)n(-c3c(F)cccc3F)c2n1 [Example 138, N-(cyclopropylmethyl)-3-[2-{[3-(diethylamino)propyl]amino}-8-(2,6-difluorophenyl)-7-oxo-7,8-dihydropyrido[2,3-d]pyrimidin-4-yl]-4-methylbenzamide trifluoroacetate], which inhibition of neutrophilia is on record?
A: The inhibition of neutrophilia was “statistically nonsignificant inhibition”.

Q: With CCN(CC)CCCNc1nc(-c2cc(C(=O)Nc3ccccc3)ccc2C)c2ccc(=O)n(-c3c(F)cccc3F)c2n1 [Example 147, 3-[2-{[3-(diethylamino)propyl]amino}-8-(2,6-difluorophenyl)-7-oxo-7,8-dihydropyrido[2,3-d]pyrimidin-4-yl]-4-methyl-N-phenylbenzamide] as the compound, how does the inhibition of neutrophilia read?
A: Its inhibition of neutrophilia is “statistically nonsignificant inhibition”.

Q: For CCN(CC)CCCNc1nc(-c2cc(C(=O)N[C@@H](C)c3ccccc3)ccc2C)c2ccc(=O)n(-c3c(F)cccc3F)c2n1 [Example 149, 3-[2-{[3-(diethylamino)propyl]amino}-8-(2,6-difluorophenyl)-7-oxo-7,8-dihydropyrido[2,3-d]pyrimidin-4-yl]-4-methyl-N-[(1S)-1-phenylethyl]benzamide], which inhibition of neutrophilia is on record?
A: Its inhibition of neutrophilia is “inactive”.

Q: How did the inhibition of neutrophilia turn out when CCN(CC)CCCNc1nc(-c2cc(C(=O)Nc3ccc(F)cc3)ccc2C)c2ccc(=O)n(-c3c(F)cccc3F)c2n1 [Example 160, 3-[2-{[3-(diethylamino)propyl]amino}-8-(2,6-difluorophenyl)-7-oxo-7,8-dihydropyrido[2,3-d]pyrimidin-4-yl]-N-(4-fluorophenyl)-4-methylbenzamide] was run?
A: The inhibition of neutrophilia was “statistically significant inhibition”.

Q: With CCC(C)NC(=O)c1ccc(C)c(-c2nc(NCCCN(CC)CC)nc3c2ccc(=O)n3-c2c(F)cccc2F)c1 (stereo not shown) [Example 162, 3-[2-{[3-(diethylamino)propyl]amino}-8-(2,6-difluorophenyl)-7-oxo-7,8-dihydropyrido[2,3-d]pyrimidin-4-yl]-4-methyl-N-(1-methylpropyl)benzamide] as the compound, how does the inhibition of neutrophilia read?
A: The inhibition of neutrophilia was “statistically nonsignificant inhibition”.

Q: How did the inhibition of neutrophilia turn out when CCCNC(=O)c1ccc(C)c(-c2nc(N3CCC(N4CCC(C)CC4)CC3)nc3c2ccc(=O)n3-c2c(F)cccc2F)c1 [Example 166, 3-[8-(2,6-difluorophenyl)-2-(4-methyl-1,4′-bipiperidin-1′-yl)-7-oxo-7,8-dihydropyrido[2,3-d]pyrimidin-4-yl]-4-methyl-N-propylbenzamide] was run?
A: The inhibition of neutrophilia was “statistically significant inhibition”.

Q: CCCCNC(=O)c1ccc(C)c(-c2nc(N3CCC(N4CCC(C)CC4)CC3)nc3c2ccc(=O)n3-c2c(F)cccc2F)c1 [Example 167, N-butyl-3-[8-(2,6-difluorophenyl)-2-(4-methyl-1,4′-bipiperidin-1′-yl)-7-oxo-7,8-dihydropyrido[2,3-d]pyrimidin-4-yl]-4-methylbenzamide] was tested. Which inhibition of neutrophilia did it give?
A: The inhibition of neutrophilia was “statistically significant inhibition”.

Q: How did the inhibition of neutrophilia turn out when Cc1ccc(C(=O)NCC(C)C)cc1-c1nc(N2CCC(N3CCC(C)CC3)CC2)nc2c1ccc(=O)n2-c1c(F)cccc1F [Example 168, 3-[8-(2,6-difluorophenyl)-2-(4-methyl-1,4′-bipiperidin-1′-yl)-7-oxo-7,8-dihydropyrido[2,3-d]pyrimidin-4-yl]-4-methyl-N-(2-methylpropyl)benzamide] was run?
A: The inhibition of neutrophilia was “inactive”.

Q: With Cc1ccc(C(=O)NC2CCCC2)cc1-c1nc(N2CCC(N3CCC(C)CC3)CC2)nc2c1ccc(=O)n2-c1c(F)cccc1F [Example 169, N-cyclopentyl-3-[8-(2,6-difluorophenyl)-2-(4-methyl-1,4′-bipiperidin-1′-yl)-7-oxo-7,8-dihydropyrido[2,3-d]pyrimidin-4-yl]-4-methylbenzamide] as the compound, how does the inhibition of neutrophilia read?
A: The inhibition of neutrophilia was “statistically nonsignificant inhibition”.

Q: With Cc1ccc(C(=O)NCC(F)(F)F)cc1-c1nc(N2CCC(N3CCC(C)CC3)CC2)nc2c1ccc(=O)n2-c1c(F)cccc1F [Example 172, 3-[8-(2,6-difluorophenyl)-2-(4-methyl-1,4′-bipiperidin-1′-yl)-7-oxo-7,8-dihydropyrido[2,3-d]pyrimidin-4-yl]-4-methyl-N-(2,2,2-trifluoroethyl)benzamide] as the compound, how does the inhibition of neutrophilia read?
A: The inhibition of neutrophilia was “inactive”.

Q: With CCNC(=O)c1ccc(C)c(-c2nc(N3CCC(N4CCC(C)CC4)CC3)nc3c2ccc(=O)n3-c2c(F)cccc2F)c1 [Example 173, 3-[8-(2,6-difluorophenyl)-2-(4-methyl-1,4′-bipiperidin-1′-yl)-7-oxo-7,8-dihydropyrido[2,3-d]pyrimidin-4-yl]-N-ethyl-4-methylbenzamide] as the compound, how does the inhibition of neutrophilia read?
A: The inhibition of neutrophilia was “statistically significant inhibition”.

Q: For Cc1ccc(C(=O)Nc2ccc(F)cc2)cc1-c1nc(N2CCC(N3CCC(C)CC3)CC2)nc2c1ccc(=O)n2-c1c(F)cccc1F [Example 174, 3-[8-(2,6-difluorophenyl)-2-(4-methyl-1,4′-bipiperidin-1′-yl)-7-oxo-7,8-dihydropyrido[2,3-d]pyrimidin-4-yl]-N-(4-fluorophenyl)-4-methylbenzamide], which inhibition of neutrophilia is on record?
A: Its inhibition of neutrophilia is “inactive”.

Q: With Cc1ccc(C(=O)NC2CCC2)cc1-c1nc(N2CCC(N3CCC(C)CC3)CC2)nc2c1ccc(=O)n2-c1c(F)cccc1F [Example 175, N-cyclobutyl-3-[8-(2,6-difluorophenyl)-2-(4-methyl-1,4′-bipiperidin-1′-yl)-7-oxo-7,8-dihydropyrido[2,3-d]pyrimidin-4-yl]-4-methylbenzamide] as the compound, how does the inhibition of neutrophilia read?
A: Its inhibition of neutrophilia is “inactive”.

Q: Which inhibition of neutrophilia does the source give for Cc1ccc(C(=O)NC2CC2)cc1-c1nc(N2CCC(N3CCC(C)CC3)CC2)nc2c1ccc(=O)n2-c1c(F)cccc1F [Example 178, N-cyclopropyl-3-[8-(2,6-difluorophenyl)-2-(4-methyl-1,4′-bipiperidin-1′-yl)-7-oxo-7,8-dihydropyrido[2,3-d]pyrimidin-4-yl]-4-methylbenzamide] here?
A: The inhibition of neutrophilia was “statistically nonsignificant inhibition”.

Q: With CCCNC(=O)c1cc(F)c(C)c(-c2nc(NCCCN(CC)CC)nc3c2ccc(=O)n3-c2c(F)cccc2F)c1 [Example 181, 3-[2-{[3-(diethylamino)propyl]amino}-8-(2,6-difluorophenyl)-7-oxo-7,8-dihydropyrido[2,3-d]pyrimidin-4-yl]-5-fluoro-4-methyl-N-propylbenzamide] as the compound, how does the inhibition of neutrophilia read?
A: The inhibition of neutrophilia was “statistically nonsignificant inhibition”.

Q: With CCN(CC)CCCNc1nc(-c2cc(C(=O)NC3CC3)cc(F)c2C)c2ccc(=O)n(-c3c(F)cccc3F)c2n1 [Example 185, N-cyclopropyl-3-[2-{[3-(diethylamino)propyl]amino}-8-(2,6-difluorophenyl)-7-oxo-7,8-dihydropyrido[2,3-d]pyrimidin-4-yl]-5-fluoro-4-methylbenzamide] as the compound, how does the inhibition of neutrophilia read?
A: The inhibition of neutrophilia was “statistically nonsignificant inhibition”.
